Assay results from patent US4143134A, “Halo-phosphonopeptides” (Hoffmann-La Roche Inc., priority 1976, dated 1979).
Converted amounts (≈) assume the structure as drawn.

How the values were obtained:
Format in all cases: cell-based
[1] = test system: Haemophilus influenzae NCTC 4560; assay: in vitro M.I.C. test against Haemophilus influenzae NCTC 4560; details: NCTC4560, read-out: M.I.C. (minimum inhibitory concentration)
Source text: (§1) The following Table illustrates the minimum inhibitory concentration (M.I.C.) in μg/ml of a representative peptide derivative provided by this invention, namely (1R)-1-(L-3-fluoroalanylamino)-ethylphosphonic acid, in an in vitro test against various organisms.

[2] = test system: Klebsiella aerogenes O-G KAl; assay: in vitro M.I.C. test against Klebsiella aerogenes O-G KAl; details: read-out: M.I.C. (minimum inhibitory concentration)
Source text: as §1

[3] = test system: Escherichia coli NCTC 10418 P.S.; assay: in vitro M.I.C. test against Escherichia coli NCTC 10418 P.S.; details: NCTC10418, read-out: M.I.C. (minimum inhibitory concentration)
Source text: as §1

[4] = test system: Escherichia coli NCIB 8879 P.S.; assay: in vitro M.I.C. test against Escherichia coli NCIB 8879 P.S.; details: NCIB8879, read-out: M.I.C. (minimum inhibitory concentration)
Source text: as §1

[5] = test system: Escherichia coli C.1.5 P.R.; assay: in vitro M.I.C. test against Escherichia coli C.1.5 P.R.; details: read-out: M.I.C. (minimum inhibitory concentration)
Source text: as §1

[6] = test system: Klebsiella aerogenes Type 33 Ba; assay: in vitro M.I.C. test against Klebsiella aerogenes Type 33 Ba; details: TYPE33BA, read-out: M.I.C. (minimum inhibitory concentration)
Source text: as §1

## C[C@H](NC(=O)[C@@H](N)CF)P(=O)(O)O [(1R)-1-(L-3-fluoroalanylamino)-ethylphosphonic acid]
[1]
  MIC: 8 µg/mL (≈ 37.4 µM)
[2]
  MIC: 4 µg/mL (≈ 18.7 µM)
[3]
  MIC: 0.25 µg/mL (≈ 1.17 µM)
[4]
  MIC: 0.5 µg/mL (≈ 2.33 µM)
[5]
  MIC: 4 µg/mL (≈ 18.7 µM)
[6]
  MIC: 1 µg/mL (≈ 4.67 µM)
